Counter-ions that a name gives are not always drawn. Like-named read-outs stand apart in the source and are kept apart here.
Experiments:
α2-Adrnoceptor = target: T1, α2-Adrnoceptor (Homo sapiens, UniProt P08913); assay: α2-Adrenoceptor binding ([3H] Rauwolscine, human platelet membranes)
T1 construct: from tissue; host or cells: human platelet membranes
T1 sequence (P08913 1-465): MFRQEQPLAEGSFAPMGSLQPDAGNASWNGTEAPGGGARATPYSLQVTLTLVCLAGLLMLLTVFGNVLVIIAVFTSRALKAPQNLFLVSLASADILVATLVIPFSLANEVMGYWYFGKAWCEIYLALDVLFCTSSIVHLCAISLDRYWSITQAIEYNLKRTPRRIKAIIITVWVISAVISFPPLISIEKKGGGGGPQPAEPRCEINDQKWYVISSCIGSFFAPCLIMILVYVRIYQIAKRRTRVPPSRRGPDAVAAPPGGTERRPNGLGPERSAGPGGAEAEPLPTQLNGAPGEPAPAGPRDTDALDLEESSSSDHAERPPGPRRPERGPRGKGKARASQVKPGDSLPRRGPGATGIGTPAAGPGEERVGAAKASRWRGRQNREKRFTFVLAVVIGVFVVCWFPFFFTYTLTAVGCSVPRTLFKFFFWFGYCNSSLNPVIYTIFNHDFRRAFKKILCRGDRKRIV
Method: Human platelet membranes were incubated with [^3 H] Rauwolscine (0.5-1.0 nM) for 30 minutes at 30° C. with varying concetrates of the drug (0.1-10,000 nM). The binding assay was stopped by filtering and rinsing on GF B glass fibre filters.
Binding Affinity (Ki) was calculated using the Cheng-Prussoff equation.

[1] = test system: Adrenaline-Exacerbated Glucose Intolerance; assay: Reversal of Adrenaline-Exacerbated Glucose Intolerance in Mice; type: in vivo, CFLP female mice; conditions: 20 μmol/kg oral gavage, 30 min before glucose (1 g/kg) and adrenaline (300 μg/kg) s.c.; blood samples 0-120 min; versus water dosed control
Method: Reversal of Adrenaline-Exacerbated Glucose Intolerance in Mice CFLP female mice of about 25 g were fasted for 24 hours prior to receiving water (10 ml/kg) or the compound by oral gavage. Thirty minutes later, glucose (1 g/kg) and adrenaline (300 μg/kg) were injected subcutaneously. Blood samples for glucose analysis were taken serially from the tail of each mouse at 0, 30, 60, 90 and 120 minutes after dosing glucose and the results are expressed below as the percentage reduction in the area under the blood glucose curve; the compound treated groups being compared to the water dosed control group. Six mice were used in each treatment group.

Structure (SMILES)	Ki (α2-Adrnoceptor) [nM]	Ki (α2-Adrnoceptor; [3H] Rauwolscine (0.5-1.0 nM), human platelet membranes, 30 minutes at 30° C., Cheng-Prussoff equation, read-out: Binding Affinity Ki) [nM]	% Reduction in area under Blood Glucose Curve [1] [%]
C[C@H]1c2ccccc2C[C@H]1NC1=NCCO1 (relative stereo) [Example 6, 2-[cis-2-(2,3-dihydro-1-methyl-1H-indene)amino]4,5-dihydrooxazole]	2		
C[C@H]1c2ccccc2C[C@@H]1NC1=NCCO1 (relative stereo) [Example 7, 2-[Trans-2-(2,3-dihydro-1-methyl-1H-indene)amino]4,5-dihydrooxazole]	2		
c1ccc2c(c1)CC(NC1=NCCS1)C2 [Example 9, 2-[2-(2,3-Dihydro-1H-indene)amino]4,5-dihydrothiazole]		190	33
c1ccc2c(c1)CCC(NC1=NCCO1)C2 (stereo not shown) [Example 8, 2-[2-(1,2,3,4-Tetrahydronaphthyl)amino]4,5-dihydrooxazole]			18
Clc1cccc2c1CC(NC1=NCCO1)C2 (stereo not shown) [Example 3, 2-[2-(4-Chloro-2,3-dihydro-1H-indene)amino]4,5-dihydrooxazole]	1		42
Clc1ccc2c(c1)CC(NC1=NCCO1)C2 (stereo not shown) [Example 4, 2-[2-(5-Chloro-2,3-dihydro-1H-indene)amino]4,5-dihydrooxazole]	25		44
c1ccc2c(c1)CC(NC1=NCCO1)C2 [Example 1, 2-[2-(2,3-Dihydro-1H-indene)amino]4,5-dihydrooxazole]	1		35
c1ccc2c(c1)CC(NC1=NCCN1)C2 [Example 2, 2-[2-(2,3-Dihydro-1H-indene)amino)4,5-dihydroimidazole hydrochloride hemihydrate]	98		
Cc1ccc2c(c1)CC(NC1=NCCO1)C2 (stereo not shown) [Example 5, 2-[2-(2,3-dihydro-5-methyl-1H-indene)amino]4,5-dihydrooxazole]	25		

— patent US4861789A, “Dihydro-indene-amine-dihydrooxazoles” (Beecham Group plc, priority 1986, dated 1989)
